Experimental data from US11124510B2, “Alkyl chain modified imidazoquinoline TLR7/8 agonist compounds and uses thereof” (Dynavax Technologies Corporation, priority 2017, dated 2021).

Columns and labels:
[1] = target: TLR8 (Homo sapiens (Human), UniProt Q9NR97); experiment: TLR8 agonist bioactivity: induction of TNFα protein in monocyte cultures (ELISA, 24 h); assay type: cell-based; settings: for TLR8 (% of Compound No. 63-00 EC50 Value): EC50 expressed as percentage of EC50 of Compound No. 63-00; for fold increase of TLR8 agonist potency compared to Compound No. 63-00 (IMDQ): more potent than IMDQ; for EC50: TNFα induction, human monocytes, 24 hours; for fold loss of TLR8 agonist potency compared to Compound No. 63-00 (IMDQ): less potent than IMDQ
Chain of TLR8 (Q9NR97 27-1041): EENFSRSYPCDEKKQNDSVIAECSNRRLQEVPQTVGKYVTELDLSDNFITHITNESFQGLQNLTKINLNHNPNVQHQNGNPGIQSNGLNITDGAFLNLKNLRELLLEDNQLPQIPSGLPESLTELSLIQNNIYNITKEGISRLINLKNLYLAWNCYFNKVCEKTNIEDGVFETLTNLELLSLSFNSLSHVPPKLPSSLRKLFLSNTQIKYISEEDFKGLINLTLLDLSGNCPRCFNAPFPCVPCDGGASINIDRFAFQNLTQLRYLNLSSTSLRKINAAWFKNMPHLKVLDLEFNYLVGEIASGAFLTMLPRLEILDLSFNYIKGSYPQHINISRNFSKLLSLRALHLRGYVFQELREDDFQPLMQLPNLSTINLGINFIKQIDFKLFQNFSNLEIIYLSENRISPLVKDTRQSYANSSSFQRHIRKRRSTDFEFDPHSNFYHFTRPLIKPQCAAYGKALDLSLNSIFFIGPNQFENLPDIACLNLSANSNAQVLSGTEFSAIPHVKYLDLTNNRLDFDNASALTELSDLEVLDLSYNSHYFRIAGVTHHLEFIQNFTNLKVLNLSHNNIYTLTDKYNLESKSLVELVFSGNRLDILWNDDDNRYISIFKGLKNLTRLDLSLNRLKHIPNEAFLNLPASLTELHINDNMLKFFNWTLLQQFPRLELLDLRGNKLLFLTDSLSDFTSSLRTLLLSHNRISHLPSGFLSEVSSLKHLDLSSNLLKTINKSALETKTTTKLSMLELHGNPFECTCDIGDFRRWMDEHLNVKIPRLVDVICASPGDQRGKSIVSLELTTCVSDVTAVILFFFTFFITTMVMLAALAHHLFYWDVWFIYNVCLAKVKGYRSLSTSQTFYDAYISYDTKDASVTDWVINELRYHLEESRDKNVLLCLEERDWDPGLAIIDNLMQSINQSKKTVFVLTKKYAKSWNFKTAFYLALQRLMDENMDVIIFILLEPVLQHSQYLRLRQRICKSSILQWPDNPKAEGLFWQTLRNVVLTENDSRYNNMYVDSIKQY
Protocol: Monocytes were magnetically isolated from PBMCs, prepared as described above, following labeling with CD14 microbeads (Miltenyi Biotec, San Diego Calif.), according to the manufacturer's instructions. […] Culture supernatants were collected and tumor necrosis factor alpha (TNFα) protein levels were measured by ELISA (MabTech, Cincinnati Ohio), according to the manufacturer's instructions.

[2] = target: TLR7 (Homo sapiens (Human), UniProt Q9NYK1); experiment: TLR7 agonist bioactivity: induction of IFNα protein in pDC-enriched PBMC cultures (ELISA, 24 h); assay type: cell-based; settings: for TLR7 (% of Compound No. 63-00 EC50 Value): EC50 expressed as percentage of EC50 of Compound No. 63-00; for EC50: IFNα induction, pDC-enriched human PBMC, 24 hours; for fold loss of TLR7 agonist potency compared to Compound No. 63-00 (IMDQ): less potent than IMDQ
Chain of TLR7 (Q9NYK1 27-1049): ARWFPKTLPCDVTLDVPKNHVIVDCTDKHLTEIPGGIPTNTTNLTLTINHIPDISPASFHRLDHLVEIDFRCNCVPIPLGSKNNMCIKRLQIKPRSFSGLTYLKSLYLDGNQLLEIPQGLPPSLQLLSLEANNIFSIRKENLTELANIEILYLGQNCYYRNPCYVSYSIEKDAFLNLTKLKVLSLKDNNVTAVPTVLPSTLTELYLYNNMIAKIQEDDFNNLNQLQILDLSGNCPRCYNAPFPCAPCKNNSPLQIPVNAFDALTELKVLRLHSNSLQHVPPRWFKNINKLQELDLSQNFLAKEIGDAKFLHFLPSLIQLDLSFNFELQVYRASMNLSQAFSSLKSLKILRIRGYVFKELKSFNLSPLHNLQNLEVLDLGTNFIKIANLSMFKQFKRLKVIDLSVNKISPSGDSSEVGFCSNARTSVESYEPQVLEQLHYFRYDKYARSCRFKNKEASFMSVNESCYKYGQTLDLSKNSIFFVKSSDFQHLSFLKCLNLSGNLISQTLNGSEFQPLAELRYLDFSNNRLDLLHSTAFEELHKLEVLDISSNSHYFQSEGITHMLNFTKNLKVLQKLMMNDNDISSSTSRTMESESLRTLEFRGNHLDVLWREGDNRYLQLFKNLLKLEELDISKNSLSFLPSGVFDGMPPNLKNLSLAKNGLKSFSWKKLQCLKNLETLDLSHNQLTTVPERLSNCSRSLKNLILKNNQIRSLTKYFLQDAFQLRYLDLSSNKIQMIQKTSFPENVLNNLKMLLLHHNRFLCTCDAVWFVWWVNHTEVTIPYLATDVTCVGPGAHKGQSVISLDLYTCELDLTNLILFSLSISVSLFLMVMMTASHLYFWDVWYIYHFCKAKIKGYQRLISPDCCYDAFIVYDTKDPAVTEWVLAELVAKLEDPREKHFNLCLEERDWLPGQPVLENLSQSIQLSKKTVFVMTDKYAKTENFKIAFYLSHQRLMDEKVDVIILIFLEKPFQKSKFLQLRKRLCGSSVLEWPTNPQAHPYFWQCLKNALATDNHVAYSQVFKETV
Protocol: Plasmacytoid dendritic cell (pDC)—enriched peripheral blood mononuclear cells (PBMCs) were prepared from the blood of a series of human donors (3-5 donors/experiment). PBMCs were isolated using Ficoll-Paque Premium® (GE Healthcare, Chicago Ill.) using methods well known to those in the art. pDCs were magnetically isolated from the total recovered PBMC population using CD304 (BDCA-4/Neuropilin-1) microbeads (Miltenyi Biotec, San Diego Calif.), according to the manufacturer's instructions. Isolated pDCs were then added back to between 1 and 2×10^8 of the corresponding donor's PBMCs for relative enrichment of this cell type. […] Culture supernatants were collected and interferon-alpha (IFNα) protein levels were measured by ELISA (MabTech, Cincinnati Ohio), according to the manufacturer's instructions.

Row | Structure (SMILES) | TLR8 (% of Compound No. 63-00 EC50 Value) [1] [%] | fold increase of TLR8 agonist potency compared to Compound No. 63-00 (IMDQ) [1] | TLR7 (% of Compound No. 63-00 EC50 Value) [2] | EC50 [1] [nM] | EC50 [2] [nM] | fold loss of TLR8 agonist potency compared to Compound No. 63-00 (IMDQ) [1] | fold loss of TLR7 agonist potency compared to Compound No. 63-00 (IMDQ) [2] [fold]
1 | CCCCc1nc2c(N)nc3ccccc3c2n1Cc1ccc(CNCCC2(C)CC2)cc1 [Compound No. 63-42, 2-butyl-1-(4-(((2-(1-methylcyclopropyl)ethyl)amino)methyl)benzyl)-1H-imidazo[4,5-c]quinolin-4-amine] | 85 | slightly improved to slightly inferior | 445% | – | – | – | –
2 | CCCCCCCCCCCCNCc1ccc(Cn2c(CCCC)nc3c(N)nc4ccccc4c32)cc1 [Compound No. 63-24, 2-butyl-1-(4-((dodecylamino)methyl)benzyl)-1H-imidazo[4,5-c]quinolin-4-amine] | – | – | – | 1040 | 32 | – | –
3 | CCCCCCCCCCNCc1ccc(Cn2c(CCCC)nc3c(N)nc4ccccc4c32)cc1 [Compound No. 63-22, 2-butyl-1-(4-((decylamino)methyl)benzyl)-1H-imidazo[4,5-c]quinolin-4-amine] | – | – | – | 821 | 62 | – | –
4 | CCCCc1nc2c(N)nc3ccccc3c2n1Cc1ccc(CNCC2CC(C)C2)cc1 (stereo not drawn) [Compound No. 63-46, 2-butyl-1-(4-((((3-methylcyclobutyl)methyl)amino)methyl)benzyl)-1H-imidazo[4,5-c]quinolin-4-amine] | 39 | – | 400% | – | – | – | –
5 | CCCCCCCCCCCC(=O)NCc1ccc(Cn2c(CCCC)nc3c(N)nc4ccccc4c32)cc1 [Compound No. 63-08, N-(4-((4-amino-2-butyl-1H-imidazo[4,5-c]quinolin-1-yl)methyl)benzyl)dodecanamide] | – | – | – | 1270 | 3 | did not lose as much agonist activity | –
6 | CCCCc1nc2c(N)nc3ccccc3c2n1Cc1ccc(CNCCCC2CC2)cc1 [Compound No. 63-43, 2-butyl-1-(4-(((3-cyclopropylpropyl)amino)methyl)benzyl)-1H-imidazo[4,5-c]quinolin-4-amine] | 77 | – | 440% | – | – | – | –
7 | CCCCc1nc2c(N)nc3ccccc3c2n1Cc1ccc(CNCC(C)(C)C2CC2)cc1 [Compound No. 63-41, 2-butyl-1-(4-(((2-cyclopropyl-2-methylpropyl)amino)methyl)benzyl)-1H-imidazo[4,5-c]quinoline-4-amine] | 43 | – | 360% | – | – | – | –
8 | CCCCc1nc2c(N)nc3ccccc3c2n1Cc1ccc(CNCC2CC2)cc1 [Compound No. 63-38, 2-butyl-1-(4-(((cyclopropylmethyl)amino)methyl)benzyl)-1H-imidazo[4,5-c]quinolin-4-amine] | 37 | – | 345% | – | – | – | –
9 | CCCCCCCCNCc1ccc(Cn2c(CCCC)nc3c(N)nc4ccccc4c32)cc1 [Compound No. 63-20, 2-butyl-1-(4-((octylamino)methyl)benzyl)-1H-imidazo[4,5-c]quinolin-4-amine] | – | – | – | 1220 | 51 | – | –
10 | CCCCc1nc2c(N)nc3ccccc3c2n1Cc1ccc(CNCC2CCC2)cc1 [Compound No. 63-44, 2-butyl-1-(4-(((cyclobutylmethyl)amino)methyl)benzyl)-1H-imidazo[4,5-c]quinolin-4-amine] | 17 | 5.9 fold | 120% | – | – | – | 1.2
11 | CCCCc1nc2c(N)nc3ccccc3c2n1Cc1ccc(CNCC2CC2(C)C)cc1 (stereo not drawn) [Compound No. 63-40, 2-butyl-1-(4-((((2,2-dimethylcyclopropyl)methyl)amino)methyl)benzyl)-1H-imidazo[4,5-c]quinolin-4-amine] | 51 | – | 215% | – | – | – | –
12 | CCCCCCCCCCCCCCCC(=O)NCc1ccc(Cn2c(CCCC)nc3c(N)nc4ccccc4c32)cc1 [Compound No. 63-31, N-(4-((4-amino-2-butyl-1H-imidazo[4,5-c]quinolin-1-yl)methyl)benzyl)palmitamide, reference compound] | – | – | – | 2150 | 3 | 10-26 fold | –
13 | CCCCCCCCCCCCCCCCNCc1ccc(Cn2c(CCCC)nc3c(N)nc4ccccc4c32)cc1 [Compound No. 63-32, 2-butyl-1-(4-((hexadecylamino)methyl)benzyl)-1H-imidazo[4,5-c]quinolin-4-amine, reference compound] | – | – | – | 3100 | 157 | – | –
14 | CCCCCCCNCc1ccc(Cn2c(CCCC)nc3c(N)nc4ccccc4c32)cc1 [Compound No. 63-19, 2-butyl-1-(4-((heptylamino)methyl)benzyl)-1H-imidazo[4,5-c]quinolin-4-amine] | – | – | – | 752 | 24 | – | –
15 | CCCCc1nc2c(N)nc3ccccc3c2n1Cc1ccc(CNCCC2CCCC2)cc1 [Compound No. 63-36, 2-butyl-1-(4-(((2-cyclopentylethyl)amino)methyl)benzyl)-1H-imidazo[4,5-c]quinolin-4-amine] | 72 | – | 1,085% | 117 | 11 | – | 10.9
16 | CCCCCCCCCCCCC(=O)NCc1ccc(Cn2c(CCCC)nc3c(N)nc4ccccc4c32)cc1 [Compound No. 63-09, N-(4-((4-amino-2-butyl-1H-imidazo[4,5-c]quinolin-1-yl)methyl)benzyl)tridecanamide] | – | – | – | 970 | 2 | did not lose as much agonist activity | –
17 | CCCCc1nc2c(N)nc3ccccc3c2n1Cc1ccc(CNCC2CC2C)cc1 (stereo not drawn) [Compound No. 63-39, 2-butyl-1-(4-((((2-methylcyclopropyl)methyl)amino)methyl)benzyl)-1H-imidazo[4,5-c]quinoline-4-amine] | 48 | – | 220% | – | – | – | –
18 | CCCCCCCCC(=O)NCc1ccc(Cn2c(CCCC)nc3c(N)nc4ccccc4c32)cc1 [Compound No. 63-05, N-(4-((4-amino-2-butyl-1H-imidazo[4,5-c]quinolin-1-yl)methyl)benzyl)nonanamide] | – | – | – | 2170 | 3 | 10-26 fold | –
19 | CCCCCCCCCC(=O)NCc1ccc(Cn2c(CCCC)nc3c(N)nc4ccccc4c32)cc1 [Compound No. 63-06, N-(4-((4-amino-2-butyl-1H-imidazo[4,5-c]quinolin-1-yl)methyl)benzyl)decanamide] | – | – | – | 2750 | 2 | 10-26 fold | –
20 | CCCCc1nc2c(N)nc3ccccc3c2n1Cc1ccc(CNCCC2CCC2)cc1 [Compound No. 63-35, 2-butyl-1-(4-(((2-cyclobutylethyl)amino)methyl)benzyl)-1H-imidazo[4,5-c]quinolin-4-amine] | 53 | – | 715% | 70 | 12 | – | –
21 | CCCCCCCCCNCc1ccc(Cn2c(CCCC)nc3c(N)nc4ccccc4c32)cc1 [Compound No. 63-21, 2-butyl-1-(4-((nonylamino)methyl)benzyl)-1H-imidazo[4,5-c]quinolin-4-amine] | – | – | – | 947 | 68 | – | –
22 | CCCCc1nc2c(N)nc3ccccc3c2n1Cc1ccc(CNCC(C)(C)C2CCC2)cc1 [Compound No. 63-47, 2-butyl-1-(4-(((2-cyclobutyl-2-methylpropyl)amino)methyl)benzyl)-1H-imidazo[4,5-c]quinolin-4-amine] | 108 | slightly improved to slightly inferior | 900% | – | – | – | 9.0
23 | CCCCc1nc2c(N)nc3ccccc3c2n1Cc1ccc(CNC(=O)CC2CC2)cc1 [Compound No. 63-34, N-(4-((4-amino-2-butyl-1H-imidazo[4,5-c]quinolin-1-yl)methyl)benzyl)-2-cyclopropylacetamide] | – | – | – | 1490 | 8 | 7 fold | 8
